Measured values from patent US7060844B2, “(3Z)-3-(2,3-dihydro-1H-inden-1-ylidene)-1,3-dihydro-2H-indol-2-ones as kinase inhibitors” (Allergan, Inc., priority 2002, dated 2006).

Legend:
[1] = tested on: VEGF induced increases in intracellular calcium levels in HUVEC (human umbilical vein endothelial cells); assay: VEGF Stimulated Ca++ Signal in Vitro (FLIPR, cell based assay); conditions: for IC50: VEGF stimulation 5 ng/mL, 30 min pre-incubation, 0.01 to 10.0 uM
Procedure: VEGF Stimulated Ca^++ Signal in Vitro
Automated FLIPR (Fluorometric Imaging Plate Reader) technology was used to screen for inhibitors of VEGF induced increases in intracellular calcium levels in fluorescent dye loaded endothelial cells. HUVEC (human umbilical vein endothelial cells) (Clonetics) were seeded in 96-well fibronectin coated black-walled plates overnight @ 37° C./5% CO2. Cells were loaded with calcium indicator Fluo-4 for 45 minutes at 37° C. Cells were washed 4 times (Original Cell Wash, Labsystems) to remove extracellular dye. For screening, cells were pre-incubated with test agents for 30 minutes at a single concentration (10 uM) or at concentrations ranging from 0.01 to 10.0 uM, followed by VEGF stimulation (5 ng/mL). Changes in fluorescence at 516 nm were measured simultaneously in all 96 wells using a cooled CCD camera. Data were generated by determining max-min fluorescence levels for unstimulated, stimulated, and drug treated samples. IC50 values for test compounds were calculated from % inhibition of VEGF stimulated responses in the absence of inhibitor.

[2] = molecular target: T1, cytoplasmic domain of the human VEGF receptor (VEGFR-2) (Homo sapiens, UniProt P35968); assay: KDR kinase assay (ELISA, poly-Glu-Tyr substrate, with BSA); type: biochemical; conditions: His-VEGFR-2, 3.6 μM ATP, plates incubated with 1% BSA
T1 construct: The cytoplasmic domain of the human VEGF receptor (VEGFR-2) was expressed; His (Histidine tag); made in house; host or cells: insect cells (engineered baculovirus)
T1 sequence (P35968 786-1356 limits assumed): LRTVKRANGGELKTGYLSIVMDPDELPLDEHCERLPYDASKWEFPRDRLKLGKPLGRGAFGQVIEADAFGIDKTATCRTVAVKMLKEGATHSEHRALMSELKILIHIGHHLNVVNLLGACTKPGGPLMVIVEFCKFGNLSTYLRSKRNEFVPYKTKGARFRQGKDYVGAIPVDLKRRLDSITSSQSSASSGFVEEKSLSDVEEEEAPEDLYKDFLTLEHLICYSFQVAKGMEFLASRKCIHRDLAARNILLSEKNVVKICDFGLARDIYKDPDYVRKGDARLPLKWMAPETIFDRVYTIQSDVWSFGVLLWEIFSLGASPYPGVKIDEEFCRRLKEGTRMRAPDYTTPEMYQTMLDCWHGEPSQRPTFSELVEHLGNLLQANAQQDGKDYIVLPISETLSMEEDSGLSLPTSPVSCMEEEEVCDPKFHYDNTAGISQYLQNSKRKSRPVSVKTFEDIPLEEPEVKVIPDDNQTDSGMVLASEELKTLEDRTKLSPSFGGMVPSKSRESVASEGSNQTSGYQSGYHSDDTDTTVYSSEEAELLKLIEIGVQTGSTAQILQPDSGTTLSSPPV
Procedure: The cytoplasmic domain of the human VEGF receptor (VEGFR-2) was expressed as a Histidine-tagged fusion protein following infection of insect cells using an engineered baculovirus. His-VEGFR-2 was purified to homogeneity, as determined by SDS-PAGE, using nickel resin chromatography. Kinase assays were performed in 96 well microtiter plates that were coated overnight with 30 μg of poly-Glu-Tyr (4:1) in 10 mM Phosphate Buffered Saline (PBS), pH 7.2–7.4. The plates were incubated with 1% BSA and then washed four times with PBS prior to starting the reaction. Reactions were carried out in 120 μL reaction volumes containing 3.6 μM ATP in kinase buffer (50 mM Hepes pH 7.4, 20 mM MgCl2, 0.1 mM MnCl2 and 0.2 mM Na3VO4). Test compounds were reconstituted in 100% DMSO and added to the reaction to give a final DMSO concentration of 5%. Reactions were initiated by the addition 0.5 ng of purified protein. Following a ten minute incubation at 25° C., the reactions were washed four times with PBS containing 0.05% Tween-20. 100 μl of a monoclonal anti-phosphotyrosine antibody-peroxidase conjugate was diluted 1:10000 in PBS-Tween-20 and added to the wells for 30 minutes. Following four washes with PBS-Tween-20, 100 μl of 0-Phenylenediamine Dihydrochloride in Phosphate-citrate buffer, containing urea hydrogen peroxide, was added to the wells for 7 minutes as a colorimetric substrate for the peroxidase. The reaction was terminated by the addition of 100 μl of 2.5N H2SO4 to each well and read using a microplate ELISA reader set at 492 nm. IC50 values for compound inhibition were calculated directly from graphs of optical density (arbitrary units) versus compound concentration following subtraction of blank values.

[3] = Homo sapiens, single concentration 10 uM, VEGF 5 ng/mL

Molecule	IC50 [2] [µM]	IC50 ([1]; Homo sapiens) [µM]	inhibition at 10 µM [1, 3] [%]	IC50 [1] [µM]	VEGF (% inhibition @ 10 uM) (Cell based assay, Ca++) ([1]; single concentration 10 uM, VEGF 5 ng/mL) [%]
O=C1Nc2ccccc2C1=C1OCc2ccccc21 [Example 1, 3-(3H-isobenzofuran-1-ylidene)-1,3-dihydro-indol-2-one]		0.11	99		
O=C1Nc2ccc(Cl)cc2C1=C1OCc2ccccc21 [Example 2, 5-Chloro-3-(3H-isobenzofuran-1-ylidene)-1,3-dihydro-indol-2-one]		0.05	98		
Cc1cccc2c1C(=C1OCc3ccccc31)C(=O)N2 [Example 3, 3-(3H-Isobenzofuran-1-ylidene)-4-methyl-1,3-dihydro-indol-2-one]		0.685	95		
CCCC(=O)Nc1ccc2c(c1)C(=C1C(=O)Nc3ccccc31)OC2 [Example 7, N-[3-(2-Oxo-1,2-dihydro-indol-3-ylidene)-1,3-dihydro-isobenzofuran-5-yl]-butyramide]	9.78		5		
O=C1Nc2ccccc2C1=C1OCc2ccc(NC(=O)C3CC3)cc21 [Example 8, Cyclopropanecarboxylic acid [3-(2-oxo-1,2-dihydro-indol-3-ylidene)-1,3-dihydro-isobenzofuran-5-yl]-amide]	0.85		48		
O=C(CCCCl)Nc1ccc2c(c1)C(=C1C(=O)Nc3ccccc31)OC2 [Example 9, 4-Chloro-N-[3-(2-oxo-1,2-dihydro-indol-3-ylidene)-1,3-dihydro-isobenzofuran-5-yl]-butyramide]	3.25		35		
COc1ccc(CC(=O)Nc2ccc3c(c2)C(=C2C(=O)Nc4ccccc42)OC3)cc1 [Example 10, 2-(4-Methoxy-phenyl)-N-[3-(2-oxo-1,2-dihydro-indol-3-ylidene)-1,3-dihydro-isobenzofuran-5-yl]-acetamide]	8.02		50		
CCNc1ccc2c(c1)C(=C1C(=O)Nc3ccccc31)OC2 [Example 11, 3-(6-Ethylamino-3H-isobenzofuran-1-ylidene)-1,3-dihydro-indol-2-one]	0.66	0.78	99		
Nc1ccc(CO)c(C(=O)Nc2ccc3c(c2)C(=C2C(=O)Nc4ccccc42)OC3)c1 [Example 13, 5-Amino-2-hydroxymethyl-N-[3-(2-oxo-1,2-dihydro-indol-3-ylidene)-1,3-dihydro-isobenzofuran-5-yl]-benzamide]	1.34	2.1	99		
O=C1Nc2ccccc2C1=C1OCc2ccc(NCCCO)cc21 [Example 14, 3-[6-(3-Hydroxy-propylamino)-3H-isobenzofuran-1-ylidene]-1,3-dihydro-indol-2-one]	0.64	0.85	100		
CC(=O)Nc1ccc2c(c1)C(=C1C(=O)Nc3ccc(Cl)cc31)OC2 [Example 20, N-[3-(5-Chloro-2-oxo-1,2-dihydro-indol-3-ylidene)-1,3-dihydro-isobenzofuran-5-yl]-acetamide]	0.39	0.097	99		
CN(C)c1ccc2c(c1)C(=C1C(=O)Nc3ccccc31)OC2 [Example 21, 3-(6-Dimethylamino-3H-isobenzofuran-1-ylidene)-1,3-dihydro-indol-2-one]	1.69	1.31	94		
[3-(2-Oxo-1,2-dihydro-indol-3-ylidene)-1,3-dihydro-isobenzofuran-5-yl]-acetamide [Example 6]	1.11			1.23	97

The remaining molecules from weak to strong by IC50 [2], led by results:

IC50 [2] [µM]	Molecule	IC50 ([1]; Homo sapiens) [µM]	inhibition at 10 µM [1, 3] [%]	IC50 [1] [µM]	VEGF (% inhibition @ 10 uM) (Cell based assay, Ca++) ([1]; single concentration 10 uM, VEGF 5 ng/mL) [%]
0.17	CNc1ccc2c(c1)C(=C1C(=O)Nc3ccccc31)OC2 [Example 22, 3-(6-Methylamino-3H-isobenzofuran-1-ylidene)-1,3-dihydro-indol-2-one]	0.29	96		
0.139	Nc1ccc2c(c1)CO/C2=C1/C(=O)Nc2ccc(Cl)cc21 [Example 17, 3-(5-Amino-3H-isobenzofuran-1-ylidene)-5-chloro-1,3-dihydro-indol-2-one]	0.055	98		
0.13	Nc1ccc2c(c1)C(=C1C(=O)Nc3ccccc31)OC2 [Example 5, 3-(6-Amino-3H-isobenzofuran-1-ylidene)-1,3-dihydro-indol-2-one]	0.04	98		
0.073	O=C1Nc2ccc(F)cc2C1=C1OCc2ccccc21 [Example 4, 5-Fluoro-3-(3H-isobenzofuran-1-ylidene)-1,3-dihydro-indol-2-one]	0.055	99		
0.066	CC(=O)Nc1ccc2c(c1)COC2=C1C(=O)Nc2ccc(Cl)cc21 [Example 19, N-[1-(5-Chloro-2-oxo-1,2-dihydro-indol-3-ylidene)-1,3-dihydro-isobenzofuran-5-yl]-acetamide]	0.05	99		
0.065	Nc1ccc2c(c1)COC2=C1C(=O)Nc2ccccc21 [Example 12, 3-(5-Amino-3H-isobenzofuran-1-ylidene)-1,3-dihydro-indol-2-one]	0.04	98		
0.063	CC(=O)Nc1ccc2c(c1)COC2=C1C(=O)Nc2ccccc21 [Example 18, N-[1-(2-Oxo-1,2-dihydro-indol-3-ylidene)-1,3-dihydro-isobenzofuran-5-yl]-acetamide]	0.04	97		
0.061	CNc1ccc2c(c1)COC2=C1C(=O)Nc2ccccc21 [Example 24, 3-(5-Methylamino-3H-isobenzofuran-1-ylidene)-1,3-dihydro-indol-2-one]	0.073	98		
0.043	CN(C)c1ccc2c(c1)COC2=C1C(=O)Nc2ccccc21 [Example 23, 3-(5-Dimethylamino-3H-isobenzofuran-1-ylidene)-1,3-dihydro-indol-2-one]	0.096	96		
0.037	CCNc1ccc2c(c1)COC2=C1C(=O)Nc2ccccc21 [Example 15, 3-(5-Ethylamino-3H-isobenzofuran-1-ylidene)-1,3-dihydro-indol-2-one]	0.051	95		
0.015	Nc1ccc2c(c1)C(=C1C(=O)Nc3ccc(Cl)cc31)OC2 [Example 16, 3-(6-Amino-3H-isobenzofuran-1-ylidene)-5-chloro-1,3-dihydro-indol-2-one]	0.06	99		
